The record followed here is patent US9896441B2 (Lycera Corporation, priority 2014, dated 2018).

Molecules are shown by their SMILES.

Test [1] concerns the target T1, RORγ-LBD (Homo sapiens, UniProt P51449).
T1 construct: made in house; host or cells: SF9 cells (baculovirus); used as diluted lysate
T1 sequence (P51449 269-508 limits assumed): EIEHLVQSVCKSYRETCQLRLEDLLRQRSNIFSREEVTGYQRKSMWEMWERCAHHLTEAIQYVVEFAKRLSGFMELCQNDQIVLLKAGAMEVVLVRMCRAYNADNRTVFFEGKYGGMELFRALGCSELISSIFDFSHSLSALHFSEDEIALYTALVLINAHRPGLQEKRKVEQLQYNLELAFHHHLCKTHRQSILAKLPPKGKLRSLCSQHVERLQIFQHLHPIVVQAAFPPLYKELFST
Put plainly: RORγ-Ligand Binding Domain (LBD) TR-FRET Assay.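 As to TR-FRET Assay Max Response: 665/615 nm signal ratio set to 100 without ursolic acid or test compound.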 The settings on record: for TR-FRET Assay Max Response: maximum response. The format is biochemical. The method in brief: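 His-tagged RORγ-LBD from SF9 baculovirus lysate, ~3 nM final, in 50 mM Tris pH 7.0, 50 mM KCl, 1 mM EDTA, 0.1 mM DTT, 0.01% BSA. Biotinylated SRC1 LXXLL peptide at 200 nM final with 2 μM ursolic acid; TR-FRET read-out, 1% DMSO final.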
In general terms: In TR-FRET formats the signal depends on donor and acceptor labels being close together.

The target in test [2] is T2, Gal4-RORγ-LBD (Homo sapiens, UniProt P51449).
T2 construct: expressed in transfected cells
T2 sequence (P51449 269-508 limits assumed): T1 sequence (P51449 269-508 limits assumed)
The test can be described thus: Gal4-RORγ Luciferase Reporter Assay in HEK-293T Cells. The format is cell-based. The settings on record: HEK-293 cells, luciferase reporter; for Gal4-RORγ Assay Max Response: maximum response. A digest of the protocol:
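HEK-293 cells were co-transfected with Gal4-RORγ-LBD and a Gal4-luciferase reporter, then exposed overnight at 37 °C to compounds with […] ursolic acid present (0.2% DMSO). Luminescence was read with One-Glo after 10 min at RT, untreated signal was set as 100, and Max Response was taken as the upper plateau of a 4-parameter logistic fit.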
For orientation: In a reporter assay the amount or activity of a reporter protein is the signal.

One may read the EC50 as the concentration that produces a half-maximal response.

As for `COC(=O)CC[C@H]1CN(S(=O)(=O)c2cccc(C(F)F)c2)c2cc(/C=C/c3c(Cl)cccc3C(F)F)ccc2O1` [Example 89EQ, methyl (S,E)-3-(6-(2-chloro-6-(difluoromethyl)styryl)-4-((3-(difluoromethyl)phenyl)-sulfonyl)-3,4-dihydro-2H-benzo[b][1,4]oxazin-2-yl)propanoate], the EC50 in test [1] (RORγ-LBD TR-FRET) and in test [2] (with ursolic acid) was less than 500 nM each time.
Turning to `O=C(O)CC[C@H]1CN(S(=O)(=O)c2cccc(C(F)(F)F)c2)c2cc(/C=C/c3cccnc3C(F)(F)F)ccc2O1` [Example 89CK, (S,E)-3-(4-((3-(trifluoromethyl)-phenyl)sulfonyl)-6-(2-(2-(trifluoromethyl)pyridin-3-yl)vinyl)-3,4-dihydro-2H-benzo[b][1,4]oxazin-2-yl)propanoic acid], the results for the EC50 in test [1] (RORγ-LBD TR-FRET) and in test [2] (with ursolic acid) were less than 500 nM and 500 to 5000 nM, respectively.
As for `CCn1cc(S(=O)(=O)N2C[C@H]([C@H](C)O)Oc3ccc(/C=C(\C)c4c(F)cccc4Cl)cc32)c(Cl)n1` [Example 97, (S)-1-((R)-4-((3-Chloro-1-ethyl-1H-pyrazol-4-yl)sulfonyl)-6-((E)-2-(2-chloro-6-fluorophenyl)prop-1-en-1-yl)-3,4-dihydro-2H-benzo[b][1,4]oxazin-2-yl)ethan-1-ol], the EC50 in test [1] (RORγ-LBD TR-FRET) and in test [2] (with ursolic acid) was less than 500 nM each time.
Regarding `CC1CCCC/C1=C\c1ccc2c(c1)N(S(=O)(=O)c1cc(C(F)(F)F)cnc1OCCO)C[C@H](CCC(=O)O)O2` (stereo partly drawn) [Example 95R], the EC50 in test [1] (RORγ-LBD TR-FRET) and in test [2] (with ursolic acid) was less than 500 nM each time.
Turning to `C/C(=C\c1ccc2c(c1)N(S(=O)(=O)c1cccc(C(F)(F)F)c1)C[C@H](CCC(C)(C)O)O2)c1c(F)cccc1Cl` [Example 121B, (S,E)-4-(6-(2-(2-chloro-6-fluorophenyl)prop-1-en-1-yl)-4-((3-(trifluoromethyl)-phenyl)sulfonyl)-3,4-dihydro-2H-benzo[b][1,4]oxazin-2-yl)-2-methylbutan-2-ol], in test [1] (RORγ-LBD TR-FRET assay), the EC50 was less than 500 nM and the “TR-FRET Assay Max Response” value was “** (a value in the range of greater than 90 to 150)”. In addition, in test [2] (in presence of ursolic acid), the EC50 was less than 500 nM and the “Gal4-RORγ Assay Max Response” value is given as “** (a value in the range of greater than 90 to 150)”.
For `COc1cc(S(=O)(=O)N2CCCc3ccc(OCc4c(Cl)cccc4Cl)cc32)ccc1F` [Example 25P, 7-((2,6-dichlorobenzyl)oxy)-1-((4-fluoro-3-methoxyphenyl)sulfonyl)-1,2,3,4-tetrahydroquinoline], the EC50 in test [1] (RORγ-LBD TR-FRET) and in test [2] (with ursolic acid) was less than 500 nM in each case.
For the compound `C/C(=C\c1ccc2c(c1)N(S(=O)(=O)c1cccc(C(F)(F)F)c1)C[C@H](CCC(=O)N1CCOCC1)O2)c1c(F)cccc1Cl` [Example 127B, (S,E)-3-(6-(2-(2-chloro-6-fluorophenyl)prop-1-en-1-yl)-4-((3-(trifluoromethyl)phenyl)sulfonyl)-3,4-dihydro-2H-benzo[b][1,4]oxazin-2-yl)-1-morpholino-propan-1-one], in test [1] (RORγ-LBD TR-FRET assay), the EC50 is less than 500 nM and the “TR-FRET Assay Max Response” value is “**** (a value greater than 200)”. Also, in test [2] (in presence of ursolic acid), the EC50 was less than 500 nM and the “Gal4-RORγ Assay Max Response” value was “** (a value in the range of greater than 90 to 150)”.
Regarding `C/C(=C\c1ccc2c(c1)N(S(=O)(=O)c1cccc(C(F)(F)F)c1)C[C@H](CCCN1CCC(C(=O)O)CC1)O2)c1c(F)cccc1Cl` [Example 123, (S,E)-1-(3-(6-(2-(2-Chloro-6-fluorophenyl)prop-1-en-1-yl)-4-((3-(trifluoromethyl)phenyl)sulfonyl)-3,4-dihydro-2H-benzo[b][1,4]oxazin-2-yl)propyl)piperidine-4-carboxylic acid], in test [1] (RORγ-LBD TR-FRET assay), the half-maximal effective concentration (EC50) is less than 500 nM and the “TR-FRET Assay Max Response” value is “** (a value in the range of greater than 90 to 150)”. For the same compound, in test [2] (in presence of ursolic acid), the EC50 lay in the range of 500 to 5000 nM and the “Gal4-RORγ Assay Max Response” value was “** (a value in the range of greater than 90 to 150)”.
For `CCOc1nn(CC)cc1S(=O)(=O)N1C[C@H](CCC(=O)OC)Oc2ccc(/C=C/c3c(Cl)cccc3C(F)F)cc21` [Example 89EI, methyl (S,E)-3-(6-(2-chloro-6-(difluoromethyl)styryl)-4-((3-ethoxy-1-ethyl-1H-pyrazol-4-yl)sulfonyl)-3,4-dihydro-2H-benzo[b][1,4]oxazin-2-yl)propanoate], the 50% effective concentration (EC50) in test [1] (RORγ-LBD TR-FRET) and in test [2] (with ursolic acid) was less than 500 nM each time.
For the compound `COc1cc(S(=O)(=O)N2C[C@H](CNC(=O)[C@H]3CC[C@H](C(=O)O)CC3)Oc3ccc(/C=C(\C)c4c(F)cccc4Cl)cc32)ccc1F` [Example 135C, (1S,4r)-4-((((S)-6-((E)-2-(2-chloro-6-fluoro-phenyl)prop-1-en-1-yl)-4-((4-fluoro-3-methoxy-phenyl)sulfonyl)-3,4-dihydro-2H-benzo[b][1,4]oxazin-2-yl)methyl)carbamoyl)-cyclohexane-1-carboxylic acid], in test [1] (RORγ-LBD TR-FRET assay), the EC50 was less than 500 nM and the “TR-FRET Assay Max Response” value was “*** (a value in the range of greater than 150 to 200)”. Further, in test [2] (in presence of ursolic acid), the EC50 fell in the range of 500 to 5000 nM and the “Gal4-RORγ Assay Max Response” value is “* (a value in the range of 30 to 90)”.
Regarding `COC(=O)CC[C@H]1CN(S(=O)(=O)c2cccc(OC(F)F)c2)c2cc(/C=C(\C)c3c(F)cccc3Cl)c(Cl)cc2O1` [Example 47, (S,E)-Methyl 3-(6-(2-(2-chloro-6-fluorophenyl)prop-1-en-1-yl)-4-((3-(difluoromethoxy)phenyl)sulfonyl)-7-chloro-3,4-dihydro-2H-benzo[b][1,4]oxazin-2-yl)propanoate], the EC50 in test [1] (RORγ-LBD TR-FRET) is less than 500 nM; in test [2] (with ursolic acid), 5000 to 10000 nM.
As to `CC/C(C)=C\c1ccc2c(c1)N(S(=O)(=O)c1cccc(C(F)(F)F)c1)C[C@H](CCC(=O)O)O2` [Example 191B, (S,Z)-3-(6-(2-methylbut-1-en-1-yl)-4-((3-(trifluoromethyl)-phenyl)sulfonyl)-3,4-dihydro-2H-benzo[b][1,4]oxazin-2-yl)propanoic acid], in test [1] (RORγ-LBD TR-FRET assay), the EC50 was less than 500 nM and the “TR-FRET Assay Max Response” value was “*** (a value in the range of greater than 150 to 200)”. Moreover, in test [2] (in presence of ursolic acid), the EC50 fell in the range of 500 to 5000 nM and the “Gal4-RORγ Assay Max Response” value is “*** (a value in the range of greater than 150 to 200)”.
Regarding `CCOc1ncc(C(F)(F)F)cc1S(=O)(=O)N1C[C@H](CCC(=O)O)Oc2ccc(C=C3CCCCC3)cc21` [Example 95B, (S)-3-(6-(cyclohexylidenemethyl)-4-((2-ethoxy-5-(trifluoromethyl)pyridin-3-yl)sulfonyl)-3,4-dihydro-2H-benzo[b][1,4]oxazin-2-yl)propanoic acid], the EC50 in test [1] (RORγ-LBD TR-FRET) is less than 500 nM; in test [2] (with ursolic acid), 500 to 5000 nM.
In the case of `CCOc1nn(CC)cc1S(=O)(=O)N1C[C@H](CCC(=O)O)Oc2ccc(/C=C(\C)c3c(F)cccc3Cl)cc21` [Example 86I, (S,E)-3-(6-(2-(2-chloro-6-fluorophenyl)prop-1-en-1-yl)-4-((3-ethoxy-1-ethyl-1H-pyrazol-4-yl)sulfonyl)-3,4-dihydro-2H-benzo[b][1,4]oxazin-2-yl)propanoic acid], the EC50 in test [1] (RORγ-LBD TR-FRET) was less than 500 nM; in test [2] (with ursolic acid) it was 500 to 5000 nM.
In the case of `COC(=O)CC[C@H]1CN(S(=O)(=O)c2cccc(C(F)(F)F)c2)c2cc(/C=C(\C)c3c(Cl)cccc3Cl)ccc2O1` [Example 86AF, (S,E)-methyl 3-(6-(2-(2,6-dichlorophenyl)prop-1-en-1-yl)-4-((3-(trifluoromethyl)phenyl)-sulfonyl)-3,4-dihydro-2H-benzo[b][1,4]oxazin-2-yl)propanoate], the EC50 in test [1] (RORγ-LBD TR-FRET) was less than 500 nM; in test [2] (with ursolic acid) it was 500 to 5000 nM.
Take `C/C(=C\c1ccc2c(c1)N(S(=O)(=O)c1cccc(C(F)(F)F)c1)C[C@H](CCNC(=O)C(C)(C)O)O2)c1c(F)cccc1Cl` [Example 115, (S,E)-N-(2-(6-(2-(2-Chloro-6-fluorophenyl)prop-1-en-1-yl)-4-((3-(trifluoromethyl)phenyl)sulfonyl)-3,4-dihydro-2H-benzo[b][1,4]oxazin-2-yl)ethyl)-2-hydroxy-2-methylpropanamide]: in test [1] (RORγ-LBD TR-FRET assay), the EC50 is less than 500 nM and the “TR-FRET Assay Max Response” value is given as “*** (a value in the range of greater than 150 to 200)”. Further, in test [2] (in presence of ursolic acid), the EC50 was less than 500 nM and the “Gal4-RORγ Assay Max Response” value is reported as “* (a value in the range of 30 to 90)”.
`O=C(O)CC[C@H]1CN(S(=O)(=O)c2cc(C(F)(F)F)cnc2OCCO)c2cc(/C=C3/CCCOC3)ccc2O1` [Example 95Y, (S,Z)-3-(6-((dihydro-2H-pyran-3(4H)-ylidene)methyl)-4-((2-(2-hydroxyethoxy)-5-(trifluoromethyl)pyridin-3-yl)sulfonyl)-3,4-dihydro-2H-benzo[b][1,4]oxazin-2-yl)propanoic acid]: the EC50 in test [1] (RORγ-LBD TR-FRET) is less than 500 nM; in test [2] (with ursolic acid), 500 to 5000 nM.
For the compound `CC1CCCC/C1=C\c1ccc2c(c1)N(S(=O)(=O)c1cccc(C(F)(F)F)c1)C[C@H](CCC(=O)O)O2` (stereo partly drawn) [Example 95Q, 3-((2S)-6-((E)-(2-methylcyclohexylidene)methyl)-4-((3-(trifluoromethyl)phenyl)-sulfonyl)-3,4-dihydro-2H-benzo[b][1,4]oxazin-2-yl)propanoic acid], the EC50 in test [1] (RORγ-LBD TR-FRET) and in test [2] (with ursolic acid) was less than 500 nM throughout.
